Assay results taken from US10738028B2, “Spiro three-membered ring, spiro five-membered ring peptide deformylase inhibitor and use thereof in antibacteria and anti-tumor” (priority 2016, dated 2020).

Legend:
Format in all cases: cell-based
[1] = system: HCT-116 colorectal cancer cell line; experiment: CCK-8 proliferation inhibition; settings: concentration of 30 μM; 72 hours; CCK-8; 30 µM
In short: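 Growth inhibition is read by CCK-8 (1:10 dilution) after 72 h of compound exposure. HCT-116 cells grow in McCoy's 5A containing 10% newborn bovine serum at 2000 cells/well, with 1‰ DMSO as vehicle control.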

[2] = system: Moraxella catarrhalis (BCA); experiment: MIC, two-fold agar dilution (CLSI), clinical isolates
In short: (§1)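 Test samples were assayed by the CLSI-recommended two-fold agar dilution method, and the minimum inhibitory concentration against each tested strain was determined.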

[3] = system: Enterococcus faecalis (EFA); experiment: as above
In short: as §1

[4] = system: methicillin-resistant Staphylococcus epidermidis (MRSE); experiment: as above
In short: as §1

[5] = system: Enterococcus faecium (EFM); experiment: as above
In short: as §1

[6] = system: methicillin-sensitive Staphylococcus epidermidis (MSSE); experiment: as above
In short: as §1

[7] = system: Streptococcus pneoumoniae (SPN); experiment: as above
In short: as §1

[8] = system: methicillin-resistant Staphylococcus aureus (MRSA); experiment: as above
In short: as §1

[9] = system: Escherichia coli (including ESBLs, non-ESBLs); experiment: as above
In short: as §1

[10] = system: methicillin-sensitive Staphylococcus aureus (MSSA); experiment: as above
In short: as §1

[11] = system: A549 lung cancer cell line; experiment: CCK-8 proliferation inhibition; settings: concentration of 30 μM
In short: (§2)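 Plating at 2000 cells/well, then incubation overnight at 37° C. Next, a range of compound concentrations for 72 hours (control 1‰ DMSO). Finally, medium decanted and CCK-8 diluted 1:10 added.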

[12] = system: MGC-803 gastric cancer cell line; experiment: CCK-8 proliferation inhibition; settings: concentration of 30 μM
In short: as §2

[13] = system: BEL-7402 liver cancer cell line; experiment: CCK-8 proliferation inhibition; settings: concentration of 30 μM, 72 hours, 30 µM
In short: as §2

O=C(C[C@@H](CC1CCCC1)C(=O)N1CC2(CC2)C[C@H]1C(=O)Nc1cnccn1)NO [Example 62]
2 mg/L: Anti-bacterial activity (MIC), strain BCA 14-1 ([2]; clinical isolate BCA 14-1) | Anti-bacterial activity (MIC), strain BCA 14-4 ([2]; clinical isolate BCA 14-4) | Anti-bacterial activity (MIC), strain BCA 14-6 ([2]; clinical isolate BCA 14-6) | Anti-bacterial activity (MIC), strain BCA 14-7 ([2]; clinical isolate BCA 14-7) | Anti-bacterial activity (MIC), strain BCA 14-8 ([2]; clinical isolate BCA 14-8)
> 50%: inhibition at 30 µM ([11]; Homo sapiens, A549, 72 h) | inhibition at 30 µM ([12]; Homo sapiens, MGC-803, 72 h)
75%: Inhibition of proliferation, Liver cancer BEL-7402 [13]
1 mg/L: Anti-bacterial activity (MIC), strain BCA 14-10 ([2]; clinical isolate BCA 14-10)
0.25 mg/L: Anti-bacterial activity (MIC), strain SPN 16-2 ([7]; clinical isolate SPN 16-2)
79%: HCT116 inhibition rate/% [1]
0.125 mg/L: Anti-bacterial activity (MIC), strain MRSA 15-1 ([8]; clinical isolate MRSA 15-1)
59%: Inhibition of proliferation, Lung cancer A549 ([11]; 72 hours, 30 µM)
8 mg/L: Anti-bacterial activity (MIC), strain EFA 15-9 ([3]; clinical isolate EFA 15-9)
> 32 mg/L: Anti-bacterial activity (MIC), strain EFA 15-1 ([3]; clinical isolate EFA 15-1) | Anti-bacterial activity (MIC), strain EFA 15-2 ([3]; clinical isolate EFA 15-2) | Anti-bacterial activity (MIC), strain EFA 15-3 ([3]; clinical isolate EFA 15-3) | Anti-bacterial activity (MIC), strain EFA 15-4 ([3]; clinical isolate EFA 15-4) | Anti-bacterial activity (MIC), strain EFA 15-5 ([3]; clinical isolate EFA 15-5) | Anti-bacterial activity (MIC), strain EFA 15-6 ([3]; clinical isolate EFA 15-6) | Anti-bacterial activity (MIC), strain EFM 15-1 ([5]; clinical isolate EFM 15-1) | Anti-bacterial activity (MIC), strain EFM 15-2 ([5]; clinical isolate EFM 15-2) | Anti-bacterial activity (MIC), strain EFM 15-3 ([5]; clinical isolate EFM 15-3) | Anti-bacterial activity (MIC), strain EFM 15-4 ([5]; clinical isolate EFM 15-4)
64%: Inhibition of proliferation, Gastric cancer MGC-803 ([12]; 72 hours, 30 µM)
16 mg/L: Anti-bacterial activity (MIC), strain MRSE 15-1 ([4]; clinical isolate MRSE 15-1) | Anti-bacterial activity (MIC), strain MRSE 15-2 ([4]; clinical isolate MRSE 15-2) | Anti-bacterial activity (MIC), strain ECO− 15-1 ([9]; clinical isolate ECO− 15-1) | Anti-bacterial activity (MIC), strain ECO− 15-2 ([9]; clinical isolate ECO− 15-2) | Anti-bacterial activity (MIC), strain ECO− 15-3 ([9]; clinical isolate ECO− 15-3) | Anti-bacterial activity (MIC), strain ECO− 15-4 ([9]; clinical isolate ECO− 15-4) | Anti-bacterial activity (MIC), strain MSSA 15-5 ([10]; clinical isolate MSSA 15-5) | Anti-bacterial activity (MIC), strain MSSA 15-6 ([10]; clinical isolate MSSA 15-6)
0.5 mg/L: Anti-bacterial activity (MIC), strain BCA 14-5 ([2]; clinical isolate BCA 14-5) | Anti-bacterial activity (MIC), strain MRSE 15-3 ([4]; clinical isolate MRSE 15-3) | Anti-bacterial activity (MIC), strain MRSE 15-7 ([4]; clinical isolate MRSE 15-7) | Anti-bacterial activity (MIC), strain EFM 15-5 ([5]; clinical isolate EFM 15-5) | Anti-bacterial activity (MIC), strain EFM 15-6 ([5]; clinical isolate EFM 15-6) | Anti-bacterial activity (MIC), strain MSSE 15-3 ([6]; clinical isolate MSSE 15-3) | Anti-bacterial activity (MIC), strain MSSE 15-4 ([6]; clinical isolate MSSE 15-4) | Anti-bacterial activity (MIC), strain MSSE 15-5 ([6]; clinical isolate MSSE 15-5) | Anti-bacterial activity (MIC), strain MSSE 15-6 ([6]; clinical isolate MSSE 15-6) | Anti-bacterial activity (MIC), strain SPN 16-4 ([7]; clinical isolate SPN 16-4) | Anti-bacterial activity (MIC), strain MRSA 15-2 ([8]; clinical isolate MRSA 15-2) | Anti-bacterial activity (MIC), strain MRSA 15-3 ([8]; clinical isolate MRSA 15-3) | Anti-bacterial activity (MIC), strain MRSA 15-4 ([8]; clinical isolate MRSA 15-4) | Anti-bacterial activity (MIC), strain ECO+ 15-1 ([9]; clinical isolate ECO+ 15-1) | Anti-bacterial activity (MIC), strain ECO+ 15-2 ([9]; clinical isolate ECO+ 15-2) | Anti-bacterial activity (MIC), strain ECO+ 15-3 ([9]; clinical isolate ECO+ 15-3) | Anti-bacterial activity (MIC), strain ECO+ 15-4 ([9]; clinical isolate ECO+ 15-4) | Anti-bacterial activity (MIC), strain MSSA 15-3 ([10]; clinical isolate MSSA 15-3) | Anti-bacterial activity (MIC), strain MSSA 15-4 ([10]; clinical isolate MSSA 15-4)
